Reference: patent US20030114467A1, “Novel pyrazolo- and pyrrolo-pyrimidines and uses thereof” (priority 2001, published 2003)

Assay: Hydroxyapatite assay (hydroxyapatite adsorption chromatography, bone-targeting potential)
Format: physicochemical
Settings: corrected retention K=(retention time-void time)/void; TSK-Gel HA 1000 HPLC column; linear gradient 10 mM to 500 mM sodium phosphate, 0.15 N NaCl, pH 6.8
Description: Hydroxyapatite is the principal mineral component of bone. Hydroxyapatite adsorption chromatography is used as an assay to evaluate the bone-targeting potential of both individual bone-targeting moieties (“monomers”) and of pharmaceuticals incorporating bone-targeting groups.
Method: The rentention time of a test compound is measured using a linear gradient from 10 mM sodium phosphate, 0.15 N NaCl, pH=6.8 to 500 mM sodium phosphate, 0.15 N NaCl, […] on a TSK-Gel HA 1000 high pressure liquid chromatography column (7.5 mm×75 mm). The rentention time of the compound is expressed in terms of K=(retention time-void time)/void. This K value is corrected using two reference compounds to correct from inter-column and inter-system variation to obtain a K′ value.
Reference Compounds: K′ values were determined for known bone targeted compounds, the bisphosphonate, alendronate and tetracycline.

K′ value: 3.7
SMILES: NCCCC(O)(P(=O)(O)O)P(=O)(O)O [Alendronate, alendronate]
